Test results published in patent US7833722B2, “Ligands for G protein-coupled receptor protein and use thereof” (Takeda Pharmaceutical Company Limited, priority 2004, dated 2010).

Key:
GPR17 [1] = target: T1, GPR17 (Homo sapiens, UniProt Q13304); assay: Suppression of forskolin-increased intracellular cAMP level in GPR17-expressed CHO cells; type: cell-based; set-up: expressed in transfected cells; conditions: forskolin 2 μM, 30 minutes, ALA in various concentrations, FIG. 2
[2] = test system: SP-induced biting response (pain response); assay: Substance P-induced biting response after intrathecal administration to mice; type: in vivo; conditions: 0.66, 2.0 and 6.6 μg/mouse intrathecal with SP 10 μg, male ICR mice, counted for one minute, FIG. 3
GPR17 [3] = target: T1, GPR17; assay: SRE-luciferase reporter assay in GPR17-expressed HeLa cells
GPR40 = target: T2, GPR40 (Homo sapiens, UniProt O14842); assay: SRE-luciferase reporter assay in GPR40 expression cells used for control; type: cell-based; conditions: PBG 1000 μM
T2 construct: expressed in transfected cells; host or cells: GPR40 expression cells
T2 sequence (O14842 whole entry, species assumed): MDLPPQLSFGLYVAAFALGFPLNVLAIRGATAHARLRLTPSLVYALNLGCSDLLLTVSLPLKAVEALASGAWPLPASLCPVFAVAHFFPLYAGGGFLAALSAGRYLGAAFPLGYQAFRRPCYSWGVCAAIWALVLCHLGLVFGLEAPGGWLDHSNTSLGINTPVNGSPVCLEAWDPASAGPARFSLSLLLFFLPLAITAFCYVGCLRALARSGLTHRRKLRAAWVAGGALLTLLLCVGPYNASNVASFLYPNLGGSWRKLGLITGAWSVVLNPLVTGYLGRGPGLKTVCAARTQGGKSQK

T1 sequence (Q13304 29-367): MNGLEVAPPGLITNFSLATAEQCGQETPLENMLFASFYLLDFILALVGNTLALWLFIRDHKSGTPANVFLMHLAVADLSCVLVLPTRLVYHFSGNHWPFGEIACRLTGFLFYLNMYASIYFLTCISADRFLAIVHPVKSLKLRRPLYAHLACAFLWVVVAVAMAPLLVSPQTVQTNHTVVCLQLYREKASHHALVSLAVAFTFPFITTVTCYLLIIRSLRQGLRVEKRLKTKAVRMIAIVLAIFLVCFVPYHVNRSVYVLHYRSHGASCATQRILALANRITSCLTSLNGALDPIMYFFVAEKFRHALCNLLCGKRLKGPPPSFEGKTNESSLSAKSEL

Row | luciferase activity (cps), GPR40 (control) (GPR40) [cps] | Increased luciferase activity (cps) in the GPR17 expression cells by PBG (GPR17 [3]; PBG 1000 μM) [cps] | luciferase activity in the GPR17 expression cells (in words) (GPR17 [3]; PBG 1000 μM) | Structure (SMILES) | intracellular cAMP level increased by forskolin addition (GPR17 [1]) | effect on SP-induced biting response (pain response) [2] | luciferase activity in the GPR17-expressed cells (in words) (GPR17 [3]; ALA 200 μM) | Increased Luciferase Activity (cps) by ALA in GPR17-Expressed Cells (GPR17 [3]; ALA 200 μM, HeLa cells, 4 hours incubation) [cps]
1 | – | – | – | NCC(=O)CCC(=O)O [ALA, 5-aminolevulinic acid] | dose-dependent and specific decrease | significant suppression effect | increased luciferase activity | 6707
2 | 3769 | 37999 | increased luciferase activity | NCc1[nH]cc(CCC(=O)O)c1CC(=O)O [PBG, porphobilinogen] | – | – | – | –
